These are literature values, as cited in patent publication US20110003837A1, “MODIFIED RELEASE FORMULATIONS OF HMG COA REDUCTASE INHIBITORS” (LUPIN LIMITED, priority 2008, published 2011).

Like-named read-outs stand apart in the source and are kept apart here.

For series [1] the following is noted: U.S. Pharmacopeia (2002).
For series [2] the following is noted: in vivo.
The conditions of series [3]: in words.
Another series deals with T1, HMG-CoA reductase (Homo sapiens, UniProt P04035).
T1 sequence (P04035 1-888): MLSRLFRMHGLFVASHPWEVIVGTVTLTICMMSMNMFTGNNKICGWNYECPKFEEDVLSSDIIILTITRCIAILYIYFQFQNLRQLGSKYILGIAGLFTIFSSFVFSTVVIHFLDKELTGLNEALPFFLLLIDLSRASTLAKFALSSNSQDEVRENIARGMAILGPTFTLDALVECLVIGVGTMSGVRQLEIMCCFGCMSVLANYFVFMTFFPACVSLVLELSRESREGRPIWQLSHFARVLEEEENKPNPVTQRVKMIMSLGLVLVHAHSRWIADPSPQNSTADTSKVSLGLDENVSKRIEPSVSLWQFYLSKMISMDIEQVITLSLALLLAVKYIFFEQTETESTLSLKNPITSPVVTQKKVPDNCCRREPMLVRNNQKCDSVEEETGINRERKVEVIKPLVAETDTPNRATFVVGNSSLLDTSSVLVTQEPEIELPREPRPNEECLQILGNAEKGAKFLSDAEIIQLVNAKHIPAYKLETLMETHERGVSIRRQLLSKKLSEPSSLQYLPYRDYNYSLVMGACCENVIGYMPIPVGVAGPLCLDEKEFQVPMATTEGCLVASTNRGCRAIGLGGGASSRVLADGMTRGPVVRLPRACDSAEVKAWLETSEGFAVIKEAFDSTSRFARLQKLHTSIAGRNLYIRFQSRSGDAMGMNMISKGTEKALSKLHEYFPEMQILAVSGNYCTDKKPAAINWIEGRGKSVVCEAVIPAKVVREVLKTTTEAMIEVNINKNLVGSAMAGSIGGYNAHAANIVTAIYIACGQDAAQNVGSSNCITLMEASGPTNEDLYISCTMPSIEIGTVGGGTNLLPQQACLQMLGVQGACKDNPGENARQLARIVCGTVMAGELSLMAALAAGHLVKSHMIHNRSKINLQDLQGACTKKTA

For series [4] the following is noted: 40 mg daily, clinical trials.

As to `CC(C)c1nc(N(C)S(C)(=O)=O)nc(-c2ccc(F)cc2)c1/C=C/[C@@H](O)C[C@@H](O)CC(=O)O` (single isomer, unassigned) [rosuvastatin], the Solubility class result in series [1] was “sparingly soluble”. Besides, in series [2], the “Absorbed dose extracted by the liver” value is reported as “up to 90%”, the “Clearance through biliary excretion” value is reported as 90%, the “Elimination half-life (t½)” value was 20 h and the “Excreted in the urine” value is recorded as 10%. The “Stability in acidic environments like that found in the stomach” value in series [3] was “stable in acidic environments”. The “Share of the inhibitory activity of rosuvastatin due to the parent compound” value at HMG-CoA reductase is recorded as 90%. Besides, the “Patients with drug levels greater than 50 ng/ml” value (40 mg) is listed as 2%. For the same compound, where the note is “80 mg”, the “Patients with drug levels greater than 50 ng/ml” value is reported as 33%. Moreover, where the note is “plasma”, the “Plasma level at which muscle and or renal toxicity developed” value is “more than 50 ng/ml”. The LDL-C reduction entry in series [4] was “up to 63%”.
